Measured values reported in patent US11400104B2, “Skeletal removal of bisphosphonates” (The Regents of the University of California, priority 2016, dated 2022).
Entries after “also recorded” stand apart in the source; their conditions may differ.

Experiments:
[1] = hydroxyapatite (HAP) binding affinity, relative retention times normalized to RIS; details: FIG. 7
Protocol: FIG. 7 is a bar graph showing hydroxyapatite (HAP) binding affinity of Zoledronate (ZOL), ROX-RIS, 5-FAM-ZOL, and AF647-ZOL. Relative retention times were normalized to RIS.
Hydroxyapatite assays indicate that the FL-BPs generally retain substantial affinity for bone mineral that reflect the affinity of the BP component and to a lesser extent, the affinity of the conjugated fluorophore. Hydroxyapatite (Macro-Prep® Ceramic hydroxyapatite Type II […]) was obtained from Bio-Rad Laboratories, Inc. Hercules, Calif. Accurately weighed hydroxyapatite powder (1.4-1.6 mg) was suspended in a 4 mL clear vial containing the appropriate volume of assay buffer (0.05% (wt/vol) Tween20, 10 μM EDTA and 100 mM HEPES pH=7.4) for 3 hours. Hydroxyapatite was then incubated with increasing amounts of FAM-BP and ROX-BP (0, 25, 50, 100, 200, and 300 μM). Samples were gently shaken for 3 hours at 37° C. in appropriate volume of assay buffer (0.05% (wt/vol) Tween20, 10 μM EDTA and 100 mM HEPES pH=7.4). Subsequent to the equilibrium period, the vials were centrifuged at 10,000 rpm for 5 minutes to separate the solids and the supernatant. 0.3 mL of the supernatant was collected and the equilibrium solution concentration is measured by using Shimadzu UV-VIS spectrometer. For the calibration series, FL-BP probe standards were prepared by serial dilution from the stock solution with the same isotherm buffer to give the range from 0 to 400 μM. Calibration curves were constructed using standard solutions of the target FL-BPs. Fluorescent emission can also be used to calculate the binding parameters. Nonspecific binding was measured with a similar procedure in the absence of hydroxyapatite as control. Binding parameters (Kd and Bmax, represent the equilibrium dissociate constant and maximum number of binding sites, respectively) were calculated using the PRISM program (Graphpad, USA). The binding parameters of each compound was measured in 5 independent experiments. […]

mouse cranial bone = assay: cranial bone displacement: AF647-ZOL pre-adsorbed via IV, FAM-ZOL sub-periosteal injection; assay type: in vivo; details: for signal of pre-adsorbed AF647-ZOL at the FAM-ZOL injection site: AF647-ZOL 100 μl of 50 μM IV 6 days before, increasing dose of FAM-ZOL; for FAM signal on the cranial bone at the injection site: sub-periosteal 10 μl of 0, 1, 10 or 50 μM
Protocol: FIG. 12A to FIG. 12C show the displacement and replacement of AF647-ZOL and 5-FAM-ZOL. FIG. 12A are fluorescent images of cranial bone. AF647-ZOL (50 μM) was pre-adsorbed on cranial bone via IV injection. 5-FAM-ZOL at the indicated doses was directly injected to the sub-periosteal space. […] The first bars of each set are for AF647-ZOL and the second bars of each set are for 5-FAM-ZOL. *, P<0.05 vs Veh by Dunnett's test.
Mice were pre-treated by 100 μl of 50 μM AF647-ZOL retro-orbital IV injection. Six days later, mice received sub-periosteal injection to cranial bone with 10 μl of 0 μM, 1 μM, 10 μM, or 50 μM FAM-ZOL. The cranial bone was harvested and soft tissues were removed. The fluorescent signals of AF647 and FAM were measured by standardized fluorescent biophotonics. The cranial bones were then prepared for cryosection. Cross-sections were made by the tape method and evaluated by confocal laser scanning microscopy.

mouse maxilla = assay: preliminary study: fluorescent imaging of mouse maxilla after 5-FAM-ZOL IV or ROX-RIS intraoral injection; assay type: in vivo; details: single IV 200 μl of 350 μM; 3 weeks after
Protocol: In a preliminary study female C57B16/J (B6) mice (8 weeks old) received either a single IV injection via tail vein of 200 μl of 350 μM 5-FAM-ZOL (5-FAM-ZOL, #BV111001, BioVinc LLC, Culver City, Calif.) or a single intraoral injection of 25 μl of 50 μM ROX-RIS (5(6)-ROX-RIS, #BV150101, BioVinc LLC, CA) to gingival/palatal tissue at maxillary left first molar (white arrow in FIG. 11). […], mice were euthanized 3 weeks after the IV injection of 5-FAM-ZOL or 2 days after the intraoral injection of ROX-RIS. Skulls (containing maxilla) were harvested and standardized fluorescent biophotonics image was obtained using an excitation wavelength of 460 nm and the 515 nm filter (LAS3000, FUJIFILM Corp).

femur trabecular bone = assay: micro CT evaluation of pharmacological function of 5-FAM-ZOL in vitamin D deficient rats; assay type: in vivo; details: vitamin D deficient (VitD (−)) rats; FIG. 13
Protocol: The pharmacological function of 5-FAM-ZOL was examined in vitamin D deficient (VitD (−)) rats (n=3 in each group). […] Bars are 1.0 mm. *: p<0.05 by Student's t-test.
This study determines the anti-resorptive function of FL-BP in vivo, as compared to ZOL. Female B6 mice were injected with 50 μM ZOL (n=6), 50 μM FL-BP (n=6) or 0.9% NaCl vehicle solution (control: n=6) via tail vein. Three weeks later, mice were euthanized and femur and L4/L5 were harvested. After fixed in 10% buffered formalin, bone samples were subjected to micro CT analysis. The anti-resorptive function were quantitatively established by the trabecular bone three-dimensional morphometry (e.g., BV/TV, Tb.N, Tb.Th, TbSp). FL-BPs with minimal or no pharmacological BP function are used.

O=C(NCC(O)C[n+]1ccn(CC(O)(P(=O)(O)O)P(=O)(O)O)c1)c1ccc(-c2c3ccc(=O)cc-3oc3cc(O)ccc23)c(C(=O)O)c1 (stereo not drawn) [5-FAM-ZOL]
influence of the fluorophore on hydroxyapatite affinity [1]: small reduction
signal of pre-adsorbed AF647-ZOL at the FAM-ZOL injection site (mouse cranial bone): decreased
signal of pre-adsorbed AF647-ZOL at the FAM-ZOL injection site (mouse cranial bone; listed as FAM-ZOL): gradual decrease
AF647-ZOL signal on the external versus internal bone surface after FAM-ZOL injection (mouse cranial bone; cranial bone cryo-cross sections): disproportionately reduced
FAM signal on the cranial bone at the injection site (mouse cranial bone): increased with increasing injection dose
FAM signal on the cranial bone at the injection site (mouse cranial bone; listed as FAM-ZOL): dose dependent increase
location of FAM-ZOL signal in cranial bone (mouse cranial bone; sub-periosteal injection, cryo-cross sections): primarily on the external bone surface
fluorescent signal in maxilla and zygomatic arch (mouse maxilla): Strong and relatively uniform green fluorescent signal
pharmacological (anti-resorptive) function (femur trabecular bone): exhibited pharmacological function; also recorded: effectively blocked catabolic bone remodeling
